According to PMC9765455 (Science Translational Medicine, 2022):
Where two headings read alike, the source gives them in different places.

Legend:
SARS-CoV-2 Delta = assay: CPE-based cell viability assay (MTT); conditions: read-out: EC50 against SARS-CoV-2 Delta
P-glycoprotein (P-gp) [1] = assay: P-gp substrate assessment; conditions: inferred from CP-100356 enhancement in Vero-TMPRSS2
HCoV-OC43 = conditions: cited from earlier work
[2] = system: Calu-3 cells, Vero-TMPRSS2 cells, primary human bronchial epithelial cells; assay: Compound cytotoxicity assay (CellTiter-Glo / LDH-Glo); format: cell-based; conditions: at the examined concentrations, 3 days
SARS-CoV-2 Omicron BA.2 = system: SARS-CoV-2 Omicron BA.2; set-up: species or system Syrian hamsters; conditions: hamster, in vivo, 200 mg/kg
[3] = system: SARS-CoV-2 Omicron BA.2.75; set-up: species or system Syrian hamsters; conditions: hamster, in vivo, 200 mg/kg
SARS-CoV-2 Omicron BA.1 = system: SARS-CoV-2 Omicron BA.1; set-up: species or system Syrian hamsters; conditions: hamster, in vivo, 200 mg/kg
[4] = system: SARS-CoV-2 Alpha (lineage B.1.1.7); set-up: species or system Syrian hamsters; conditions: hamster, in vivo, 200 mg/kg
[5] = Pharmacokinetics after single oral administration
[6] = male, Syrian, hamster, in vivo
[7] = system: SARS-CoV-2 Gamma (lineage P.1); set-up: species or system Syrian hamsters; conditions: hamster, in vivo, 200 mg/kg
SARS-CoV-2 Omicron BA.5 = system: SARS-CoV-2 Omicron BA.5; set-up: species or system Syrian hamsters; conditions: hamster, in vivo, 200 mg/kg
SARS-CoV = conditions: cited from earlier work
MERS-CoV = conditions: cited from earlier work
[8] = healthy adults, phase 1 trial; cited from earlier work
SARS-CoV-2 VOCs = assay: CPE-based MTT assay against SARS-CoV-2 VOCs in 293T-hACE2-TMPRSS2 cells (fig. S4); format: cell-based; conditions: 293T-hACE2-TMPRSS2, fig. S4
Description: Antiviral compounds and antibodies were serially diluted 2-fold increments by culture medium containing 2% FBS and plated on 96-well microplates. The diluted compounds in the plates were mixed with SARS-CoV-2 and cell suspensions. The diluted antibodies were initially incubated with SARS-CoV-2 for 30 minutes and then added to the cell suspension. Cells in the plates were cultured for 2 to 3 days, and then exposed to MTT (3-[4,5-dimethyl-2-thiazolyl]-2,5-diphenyl-2H-tetrazolium bromide) (Nacalai Tesque). Cell viability was determined by measurement of absorbance at 560 nm and 690 nm. EC50 values were defined in GraphPad Prism version 8.4.3 (GraphPad Software) with a variable slope (four parameters).
Cytopathic effect (CPE) in 293T-hACE2-TMPRSS2 cells induced by SARS-CoV-2 infection was measured at 3 dpi by 3-[4,5-dimethyl-2-thiazolyl]-2,5-diphenyl-2H-tetrazolium bromide (MTT) […]
assay. […] Uninfected cells
(1 picture or pasted object on this page, not shown here)

COVID-19 = conditions: cited from earlier work
P-glycoprotein (P-gp) [9] = conditions: cited from earlier work
host DNA = system: host DNA; set-up: method as in PMID 33961695; conditions: cell-based assays; cited from earlier work
[10] = Severe acute respiratory syndrome coronavirus 2, 293 T-hACE2-TMPRSS2
[11] = Severe acute respiratory syndrome coronavirus 2, Vero/TMPRSS2, Vero-TMPRSS2
[12] = Severe acute respiratory syndrome coronavirus 2, Vero/TMPRSS2, Vero-TMPRSS2 with CP-100356

Question: For `O=c1nc(NO)ccn1[C@@H]1O[C@H](CO)[C@@H](O)[C@H]1O` [NHC, N-hydroxycytidine], which EC50 (SARS-CoV-2 Delta; [10]) is on record?
Answer: 538 ± 142 nM

Question: And the EC50 (SARS-CoV-2 Delta; [11])?
Answer: 360 ± 49.4 nM

Question: And the EC50 (SARS-CoV-2 Delta; [12])?
Answer: 677 ± 8.89 nM

Question: Which “substrate of P-gp” value (P-glycoprotein (P-gp) [1]) does the source give for `Cn1cnc(Cn2c(=O)[nH]/c(=N\c3cc4cn(C)nc4cc3Cl)n(Cc3cc(F)c(F)cc3F)c2=O)n1` [S-217622] here?
Answer: substrate of P-gp

Question: And the EC90 (HCoV-OC43)?
Answer: 74 nM

Question: What about the cytotoxicity [2] of the same compound?
Answer: No cytotoxicity was observed

Question: What about the EC50 (SARS-CoV-2 Delta; [10]) of the same compound?
Answer: 26 ± 6.65 nM

Question: And the EC50 (SARS-CoV-2 Delta; [11])?
Answer: 407 ± 21.3 nM

Question: What about the EC50 (SARS-CoV-2 Delta; [12]) of the same compound?
Answer: 69 ± 11.2 nM

Question: And the “Fig. 3B: Virus titer” value (SARS-CoV-2 Omicron BA.2)?
Answer: n.d.(=100)

Question: And the “Fig. 3A: Viral RNA” value [3]?
Answer: n.d.(=1)

Question: And the “Fig. 3B: Virus titer” value [3]?
Answer: n.d.(=100)

Question: What about the “Fig. 3A: Viral RNA” value (SARS-CoV-2 Omicron BA.1) of the same compound?
Answer: n.d.(=1)

Question: What about the “Fig. 3B: Virus titer” value (SARS-CoV-2 Omicron BA.1) of the same compound?
Answer: n.d.(=100)

Question: And the “Fig. 3B: Virus titer” value [4]?
Answer: n.d.(=100)

Question: What about the “Cmax and AUC dose proportionality” value ([5]; 10 to 100 mg/kg) of the same compound?
Answer: increased more than the dose ratio

Question: And the bioavailability ([5]; hamsters, plasma)?
Answer: excellent bioavailability

Question: What about the half-life ([5]; male, Syrian, hamster, plasma, po, 100 mg/kg) of the same compound?
Answer: 3.43 to 4.46 h

Question: What about the “time at which plasma concentration reached the maximum” value [6] of the same compound?
Answer: 0.5 to 2.67 h

Question: What about the “Fig. 3B: Virus titer” value [7] of the same compound?
Answer: n.d.(=100)

Question: And the “Fig. 3B: Virus titer” value (SARS-CoV-2 Omicron BA.5)?
Answer: n.d.(=100)

Question: What about the EC50 (SARS-CoV) of the same compound?
Answer: 210 nM

Question: And the EC50 (MERS-CoV)?
Answer: 1400 nM

Question: And the bioavailability and tolerability [8]?
Answer: favorable bioavailability and tolerability

Question: And the “antiviral activity against VOCs” value (SARS-CoV-2 VOCs)?
Answer: exhibited antiviral activity against all VOCs

Question: Which results are given for `CC(C)(C)[C@H](NC(=O)C(F)(F)F)C(=O)N1C[C@H]2[C@@H]([C@H]1C(=O)N[C@H](C#N)C[C@@H]1CCNC1=O)C2(C)C` [Nirmatrelvir]?
Answer: reduction in the risk of hospitalization or death (COVID-19): 88%; EC50 (SARS-CoV-2 Delta; [10]): 37 ± 5.3 nM; EC50 (SARS-CoV-2 Delta; [11]): > 1000 nM; EC50 (SARS-CoV-2 Delta; [12]): 132 ± 32 nM; substrate of P-gp (P-glycoprotein (P-gp) [9]): major substrates

Question: Which results are given for `CC(C)C(=O)OC[C@H]1O[C@@H](n2ccc(NO)nc2=O)[C@H](O)[C@@H]1O` [Molnupiravir, reference compound]?
Answer: decrease of the risk of hospitalization for COVID-19 (COVID-19; clinical trial): 30%; EC50 (SARS-CoV-2 Delta; [10]): 3680 ± 1090 nM; EC50 (SARS-CoV-2 Delta; [11]): 3170 ± 217 nM; EC50 (SARS-CoV-2 Delta; [12]): 2280 ± 118 nM; mutagenesis (host DNA): mutagenesis not only for viral RNA but also for host DNA

Question: For `CCC(CC)COC(=O)[C@H](C)N[P@](=O)(OC[C@H]1O[C@@](C#N)(c2ccc3c(N)ncnn23)[C@H](O)[C@@H]1O)Oc1ccccc1` [Remdesivir], which EC50 (SARS-CoV-2 Delta; [10]) is on record?
Answer: < 3.9 nM

Question: And the EC50 (SARS-CoV-2 Delta; [11])?
Answer: > 500 nM

Question: And the EC50 (SARS-CoV-2 Delta; [12])?
Answer: 32 ± 4.52 nM

Question: What about the “substrate of P-gp” value (P-glycoprotein (P-gp) [9]) of the same compound?
Answer: major substrates
